The subject of experiment [1] is Hela (human cervical cancer cells). Nature of the experiment: MTT cancer cell growth inhibition. In kind it is cell-based. As to conditions: Homo sapiens, HeLa, 72 h, MTT, 72 hours incubation; read-out: GI50 Hela. The gist of the method: (§1)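 Following overnight attachment of 1500 cells per well, each line was exposed to test drug (final 10^−5 to 10^−10 M) for 72 h in a humidified 37° C., 5% CO2 incubator. Four hours with MTT, DMSO dissolution of formazan, and a 570 nm reading yielded viability data used for GI50.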

Experiment [2] relates to PANC-1 (Pac-1, human pancreatic cancer cells). Nature of the experiment: MTT cancer cell growth inhibition. In kind it is cell-based. The conditions noted are these: Homo sapiens, PANC-1, 72 h, MTT, 72 hours incubation; read-out: GI50 PAN. The procedure, abridged: as §1
The subject of experiment [3] is MDA-MB-231 (breast cancer cells). Briefly: MTT cancer cell growth inhibition. It is filed as cell-based. The conditions noted are these: Homo sapiens, MDA-MB-231, 72 h, read-out: GI50 MDA-MB-231, MTT, 72 hours incubation, MDA-MB-231 cells. The procedure, abridged: as §1
Experiment [4] relates to DU145 (human prostate cancer cells). Nature of the experiment: MTT cancer cell growth inhibition. In kind it is cell-based. As to conditions: Homo sapiens, DU-145, 72 h, MTT, 72 hours incubation; read-out: GI50 Du1. The procedure, abridged:
as §1

Experiment [5] concerns Huh-7 (human hepatoma cells). Nature of the experiment: MTT cancer cell growth inhibition. It is filed as cell-based. As to conditions: Homo sapiens, Huh-7, 72 h, MTT, 72 hours incubation, Huh-7 cells; read-out: GI50 Huh-7. The gist of the method:
as §1

Experiment [6] deals with HCC827 (human non-small cell lung cancer cells). Nature of the experiment: MTT cancer cell growth inhibition. The conditions noted are these: Homo sapiens, HCC827, 72 h, MTT, 72 hours incubation, HCC827 cells; read-out: GI50 HCC827. It is filed as cell-based. The procedure, abridged: as §1
In experiment [7] the test system is MOLT-4 (human acute lymphoblastic leukemia cells). Nature of the experiment: MTT cancer cell growth inhibition. In kind it is cell-based. The conditions noted are these: Homo sapiens, MOLT-4, 72 h, MTT, 72 hours incubation; read-out: GI50 Mol. The procedure, abridged: as §1
For experiment [8], the system named is BGC-823 (human gastric cancer cells). Nature of the experiment: MTT cancer cell growth inhibition. In kind it is cell-based. The conditions noted are these: Homo sapiens, BGC-823, 72 h, MTT, 72 hours incubation; read-out: GI50 BG. The gist of the method:
as §1

The test system of experiment [9] is A549 (human lung cancer cells). Nature of the experiment: MTT cancer cell growth inhibition. It is filed as cell-based. The conditions noted are these: Homo sapiens, A549, 72 h, MTT, 72 hours incubation; read-out: GI50 A54. The procedure, abridged: as §1
Experiment [10] has as its system N-87 (human gastric cancer cells). Briefly: MTT cancer cell growth inhibition. In kind it is cell-based. The conditions noted are these: Homo sapiens, 72 h, MTT, 72 hours incubation, N-87 cells; read-out: GI50 N-87. The procedure, abridged:
as §1

Experiment [11] deals with KBM5-T315I (human chronic myelogenous leukemia). Nature of the experiment: MTT cancer cell growth inhibition. It is filed as cell-based. The conditions noted are these: Homo sapiens, 72 h, MTT, 72 hours incubation, KBM5-T315I cells; read-out: GI50 KBM5-T315I. The procedure, abridged:
as §1

Experiment [12] relates to K562 (human leukemia cells). Nature of the experiment: MTT cancer cell growth inhibition. It is filed as cell-based. The conditions noted are these: Homo sapiens, K562, 72 h, MTT, 72 hours incubation, K562 cells; read-out: GI50 K562. The procedure, abridged: as §1
For experiment [13], the system named is Bel-7402 (human hepatoma cells). Nature of the experiment: MTT cancer cell growth inhibition. It is filed as cell-based. As to conditions: Homo sapiens, Bel-7402, 72 h, MTT, 72 hours incubation, Bel-7402 cells; read-out: GI50 Bel-7402. The gist of the method:
as §1

In experiment [14] the test system is H1975 (non-small cell lung adenocarcinoma). Briefly: MTT cancer cell growth inhibition. It is filed as cell-based. As to conditions: Homo sapiens, NCI-H1975, 72 h, MTT, 72 hours incubation, H1975 cells; read-out: GI50 H1975. The procedure, abridged:
as §1

In experiment [15] the test system is U937 (human leukemia cells). Briefly: MTT cancer cell growth inhibition. It is filed as cell-based. As to conditions: Homo sapiens, U-937, 72 h, MTT, 72 hours incubation; read-out: GI50 U93. The gist of the method:
as §1

Experiment [16] deals with MCF-7 (human breast cancer cells). Nature of the experiment: MTT cancer cell growth inhibition. It is filed as cell-based. As to conditions: Homo sapiens, MCF7, 72 h, 72 hours incubation, read-out: GI50 MCF. The procedure, abridged:
as §1

Experiment [17] concerns lncap (prostate cancer cells). Briefly: MTT cancer cell growth inhibition. In kind it is cell-based. As to conditions: Homo sapiens, LNCaP, 72 h, MTT, 72 hours incubation; read-out: GI50 lnca. The procedure, abridged: as §1
For experiment [18], the system named is KBM-5 (human chronic myelogenous leukemia). Nature of the experiment: MTT cancer cell growth inhibition. It is filed as cell-based. The conditions noted are these: Homo sapiens, KBM5, 72 h, MTT, 72 hours incubation, KBM-5 cells; read-out: GI50 KBM-5. The procedure, abridged:
as §1

For experiment [19], the system named is SGC-7901 (human gastric cancer cells). Nature of the experiment: MTT cancer cell growth inhibition. As to conditions: Homo sapiens, SGC-7901, 72 h, MTT, 72 hours incubation, SGC-7901 cells; read-out: GI50 SGC-7901. In kind it is cell-based. The gist of the method:
as §1

In experiment [20] the test system is HT1080 (human fibrosarcoma cells). Nature of the experiment: MTT cancer cell growth inhibition. The conditions noted are these: Homo sapiens, HT-1080, 72 h, MTT, 72 hours incubation; read-out: GI50 HT1. It is filed as cell-based. The gist of the method: as §1
The target in another experiment is T1, HDAC7 (Homo sapiens, UniProt Q8WUI4).
T1 sequence (Q8WUI4 1-952): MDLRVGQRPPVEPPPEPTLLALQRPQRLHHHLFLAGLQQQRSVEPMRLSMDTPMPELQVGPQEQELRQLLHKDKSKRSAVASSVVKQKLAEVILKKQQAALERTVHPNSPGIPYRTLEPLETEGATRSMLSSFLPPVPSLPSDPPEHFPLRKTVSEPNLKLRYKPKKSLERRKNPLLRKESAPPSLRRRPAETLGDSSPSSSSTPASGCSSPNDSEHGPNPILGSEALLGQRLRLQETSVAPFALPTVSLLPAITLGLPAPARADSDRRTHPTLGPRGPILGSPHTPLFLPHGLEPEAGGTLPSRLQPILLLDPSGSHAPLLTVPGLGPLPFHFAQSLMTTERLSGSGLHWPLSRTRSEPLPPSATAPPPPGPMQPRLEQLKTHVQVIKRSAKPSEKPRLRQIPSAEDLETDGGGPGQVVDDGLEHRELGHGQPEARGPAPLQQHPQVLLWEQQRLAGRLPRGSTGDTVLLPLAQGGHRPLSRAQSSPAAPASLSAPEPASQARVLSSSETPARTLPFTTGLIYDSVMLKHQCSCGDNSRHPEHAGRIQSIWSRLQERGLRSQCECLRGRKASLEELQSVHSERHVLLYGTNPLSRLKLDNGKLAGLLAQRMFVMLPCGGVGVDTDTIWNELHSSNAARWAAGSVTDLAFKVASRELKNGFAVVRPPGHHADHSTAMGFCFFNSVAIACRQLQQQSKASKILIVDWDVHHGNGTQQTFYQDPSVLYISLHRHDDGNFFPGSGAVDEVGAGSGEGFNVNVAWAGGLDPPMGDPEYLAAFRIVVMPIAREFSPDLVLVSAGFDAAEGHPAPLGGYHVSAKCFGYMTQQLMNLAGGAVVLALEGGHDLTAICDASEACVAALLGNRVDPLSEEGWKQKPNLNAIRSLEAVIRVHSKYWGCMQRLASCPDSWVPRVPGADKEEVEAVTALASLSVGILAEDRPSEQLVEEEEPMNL
Briefly: HDAC biochemical activity measurement (fluorescent substrate deacetylation).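 Note: fluorogenic deacetylation assay using acetyl-lysine substrate at 20 µM, enzyme and compound incubated 30 min at 37 °C, then developer added, fluorescence read at 360/460 nm.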 The conditions noted are these: HDAC7; 37° C. 30 minutes.

Molecules are shown by their SMILES.

Consider `C/C=C1\NC(=O)c2cc(F)cc(n2)CNC(=O)C[C@@H](/C=C/CCS)OC(=O)[C@H](CCCCNC(=O)OCC2c3ccccc3-c3ccccc32)NC1=O` [Compound 121], for which the GI50 (usually the concentration giving 50% growth inhibition) in experiment [1] stood at 50 nM; in [2] it was 70 nM; in experiment [3], 75 nM; in experiment [4], 30 nM; in experiment [5], 45 nM; in [6] it was 42 nM. Further, the GI50 is 30 nM in experiment [7]; 190 nM in [8]; 210 nM in [9]; 23 nM in [10]; 23 nM in experiment [11]; 38 nM in experiment [12]. Moreover, the GI50 stood at 26 nM in experiment [13]; 28 nM in experiment [14]; 60 nM in experiment [15]; 20 nM in experiment [16]; 110 nM in experiment [17]; 46 nM in experiment [18]. For the same compound, the GI50 in experiment [19] is 33 nM; in experiment [20], 70 nM. Besides, the “IC50 HDAC7” value against HDAC7 is “no activity”.

Take `C/C=C1\NC(=O)c2ccc(F)c(n2)CNC(=O)C[C@@H](/C=C/CCS)OC(=O)[C@H](C)NC1=O` [Compound 114]: the 50% growth inhibitory concentration (GI50) in [1] is 70 nM; in experiment [2] it was 60 nM; in [3], 22 nM; in [4] it was 60 nM; in [5], 54 nM; in experiment [6], 71 nM. In addition, the GI50 in experiment [7] was 100 nM; in experiment [8], 60 nM; in experiment [9] it was 30 nM; in experiment [10], 11 nM; in [11], 28 nM; in experiment [12] it was 38 nM. For the same compound, the GI50 in experiment [13] amounted to 42 nM; in experiment [14], 32 nM; in [15], 30 nM; in experiment [16], 60 nM; in experiment [17], 70 nM; in experiment [18] it was 99 nM. Also, the values for the GI50 in [19] and in experiment [20] were 43 nM and 100 nM, respectively. Also, the “IC50 HDAC7” value against HDAC7 is given as “no activity”.

With `C/C=C1\NC(=O)c2nc(ccc2F)CNC(=O)C[C@@H](/C=C/CCSC(=O)CCCC)OC(=O)[C@H](C(C)C)NC1=O` [Example 39], the GI50 in [1] came out at 70 nM; in experiment [2] it was 80 nM; in experiment [3], 22 nM; in experiment [4], 20 nM; in experiment [5], 22 nM; in experiment [6], 83 nM. For the same compound, the GI50 in experiment [7] amounted to 20 nM; in experiment [8], 50 nM; in experiment [9] it was 40 nM; in [10], 50 nM; in [11], 67 nM; in experiment [12] it was 26 nM. Also, the GI50 in experiment [13] was determined as 83 nM; in experiment [14], 35 nM; in experiment [15], 30 nM; in experiment [16] it was 60 nM; in experiment [17] it was 20 nM; in experiment [18], 72 nM. In addition, the GI50 in [19] amounted to 41 nM; in experiment [20], 80 nM. The “IC50 HDAC7” value against HDAC7 is “no activity”.

On to `C/C=C1\NC(=O)c2ccc(F)c(n2)CNC(=O)C[C@@H](/C=C/CCSC(=O)CCCCC)OC(=O)[C@H](C(C)C)NC1=O` [Example 38], for which the GI50 in [1] was 70 nM; in experiment [2], 80 nM; in [3], 33 nM; in experiment [4], 30 nM; in experiment [5], 33 nM; in experiment [6] it was 84 nM. Besides, the GI50 in experiment [7] came to 30 nM; in experiment [8] it was 40 nM; in experiment [9], 30 nM; in [10] it was 49 nM; in experiment [11], 64 nM; in experiment [12], 39 nM. The concentration for 50% growth inhibition (GI50) in experiment [13] turned out to be 84 nM; in experiment [14], 34 nM; in experiment [15], 30 nM; in [16], 60 nM; in experiment [17], 30 nM; in experiment [18], 77 nM. Besides, the GI50 is 34 nM in experiment [19] and 80 nM in experiment [20]. Also, the “IC50 HDAC7” value against HDAC7 is on record as “no activity”.

The values are drawn from patent US10065990B2, “Cyclic peptide compound, and preparation method, pharmaceutical composition and use thereof” (HANGZHOU GUANYU BIO-MEDICAL CO., LTD, priority 2013, dated 2018).
